The source made the active and inactive calls. Where only a bound is given, the exact number is not on record here.

This passage reports Kd results from ChEMBL document CHEMBL3991601, “The target landscape of clinical kinase drugs” (Science, 2017).

Assay [1] deals with Epidermal growth factor receptor (Homo sapiens, UniProt P00533).
Assay [2] addresses High affinity nerve growth factor receptor (Homo sapiens, UniProt P04629).
The target of assay [3] is T1, Isoleucine--tRNA ligase, mitochondrial (Homo sapiens, UniProt Q9NSE4).
T1 sequence (Q9NSE4 whole entry): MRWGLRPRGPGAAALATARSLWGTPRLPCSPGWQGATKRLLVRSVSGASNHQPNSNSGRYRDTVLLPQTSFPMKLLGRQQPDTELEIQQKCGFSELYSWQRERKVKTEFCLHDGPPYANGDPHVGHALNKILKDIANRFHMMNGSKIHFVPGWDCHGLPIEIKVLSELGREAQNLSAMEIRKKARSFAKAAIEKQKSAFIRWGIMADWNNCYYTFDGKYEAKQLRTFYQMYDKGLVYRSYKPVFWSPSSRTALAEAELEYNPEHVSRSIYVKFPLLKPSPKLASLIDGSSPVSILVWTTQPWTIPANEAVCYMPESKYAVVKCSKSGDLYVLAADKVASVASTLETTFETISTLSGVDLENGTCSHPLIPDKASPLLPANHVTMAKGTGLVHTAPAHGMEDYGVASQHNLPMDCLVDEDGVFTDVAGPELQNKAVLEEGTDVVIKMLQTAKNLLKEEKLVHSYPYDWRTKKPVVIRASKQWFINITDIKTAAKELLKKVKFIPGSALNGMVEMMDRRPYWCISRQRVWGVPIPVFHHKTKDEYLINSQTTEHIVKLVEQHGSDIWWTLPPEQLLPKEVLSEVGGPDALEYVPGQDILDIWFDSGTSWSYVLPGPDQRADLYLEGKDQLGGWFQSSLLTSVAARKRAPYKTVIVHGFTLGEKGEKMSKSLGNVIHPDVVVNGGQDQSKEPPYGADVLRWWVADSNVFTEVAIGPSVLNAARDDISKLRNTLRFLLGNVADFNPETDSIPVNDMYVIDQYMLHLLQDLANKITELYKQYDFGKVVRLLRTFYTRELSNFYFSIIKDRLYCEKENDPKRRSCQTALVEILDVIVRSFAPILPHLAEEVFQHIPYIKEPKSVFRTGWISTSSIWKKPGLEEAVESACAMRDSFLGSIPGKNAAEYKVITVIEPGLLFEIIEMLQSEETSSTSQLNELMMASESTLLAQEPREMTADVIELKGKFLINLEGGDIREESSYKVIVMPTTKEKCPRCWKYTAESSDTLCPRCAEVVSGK

The target in assay [4] is Dual specificity protein kinase CLK2 (Homo sapiens, UniProt P49760).
Sequence of Dual specificity protein kinase CLK2 (P49760 whole entry): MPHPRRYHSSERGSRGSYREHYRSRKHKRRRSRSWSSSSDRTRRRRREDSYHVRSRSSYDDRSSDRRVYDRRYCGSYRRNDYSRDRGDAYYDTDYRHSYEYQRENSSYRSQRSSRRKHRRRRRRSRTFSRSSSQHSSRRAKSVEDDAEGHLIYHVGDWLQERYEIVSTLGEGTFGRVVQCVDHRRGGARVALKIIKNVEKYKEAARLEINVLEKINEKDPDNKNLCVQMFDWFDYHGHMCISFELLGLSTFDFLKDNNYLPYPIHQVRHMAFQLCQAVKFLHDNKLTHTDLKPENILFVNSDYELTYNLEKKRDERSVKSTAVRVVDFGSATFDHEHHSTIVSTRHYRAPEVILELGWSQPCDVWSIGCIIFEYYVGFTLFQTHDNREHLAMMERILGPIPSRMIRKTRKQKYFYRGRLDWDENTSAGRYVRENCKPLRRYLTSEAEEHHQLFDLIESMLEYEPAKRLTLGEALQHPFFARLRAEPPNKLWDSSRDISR
Assay [5] has as its target T2, Protein kinase C zeta type (Homo sapiens, UniProt Q05513).
T2 sequence (Q05513 whole entry): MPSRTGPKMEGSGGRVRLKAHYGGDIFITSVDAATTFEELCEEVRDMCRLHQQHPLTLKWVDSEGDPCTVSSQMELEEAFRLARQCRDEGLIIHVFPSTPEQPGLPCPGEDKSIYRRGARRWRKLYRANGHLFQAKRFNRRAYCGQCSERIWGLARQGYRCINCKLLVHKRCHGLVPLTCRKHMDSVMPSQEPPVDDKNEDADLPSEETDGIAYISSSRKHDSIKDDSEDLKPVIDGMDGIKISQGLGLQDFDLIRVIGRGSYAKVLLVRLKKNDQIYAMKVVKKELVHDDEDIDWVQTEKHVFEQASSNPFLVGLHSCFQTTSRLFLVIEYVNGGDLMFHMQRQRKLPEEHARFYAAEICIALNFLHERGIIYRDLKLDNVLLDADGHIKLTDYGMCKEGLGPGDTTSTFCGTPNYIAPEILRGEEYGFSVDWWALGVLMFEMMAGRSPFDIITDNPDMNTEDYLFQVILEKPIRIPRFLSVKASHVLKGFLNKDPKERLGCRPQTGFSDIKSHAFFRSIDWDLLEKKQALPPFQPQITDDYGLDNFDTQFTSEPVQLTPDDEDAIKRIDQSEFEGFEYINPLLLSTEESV

Assay [6] has as its target Cell division cycle 7-related protein kinase (Homo sapiens, UniProt O00311).
Assay [7] deals with Membrane-associated progesterone receptor component 1 (Homo sapiens, UniProt O00264).
Sequence of Membrane-associated progesterone receptor component 1 (O00264 whole entry): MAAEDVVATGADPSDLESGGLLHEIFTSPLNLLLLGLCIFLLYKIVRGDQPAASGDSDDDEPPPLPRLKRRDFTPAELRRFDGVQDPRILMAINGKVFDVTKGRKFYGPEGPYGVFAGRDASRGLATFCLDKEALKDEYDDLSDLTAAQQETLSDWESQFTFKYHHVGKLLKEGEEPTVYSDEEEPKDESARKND
The target in assay [8] is MAP kinase-activated protein kinase 3 (Homo sapiens, UniProt Q16644).
Sequence of MAP kinase-activated protein kinase 3 (Q16644 whole entry): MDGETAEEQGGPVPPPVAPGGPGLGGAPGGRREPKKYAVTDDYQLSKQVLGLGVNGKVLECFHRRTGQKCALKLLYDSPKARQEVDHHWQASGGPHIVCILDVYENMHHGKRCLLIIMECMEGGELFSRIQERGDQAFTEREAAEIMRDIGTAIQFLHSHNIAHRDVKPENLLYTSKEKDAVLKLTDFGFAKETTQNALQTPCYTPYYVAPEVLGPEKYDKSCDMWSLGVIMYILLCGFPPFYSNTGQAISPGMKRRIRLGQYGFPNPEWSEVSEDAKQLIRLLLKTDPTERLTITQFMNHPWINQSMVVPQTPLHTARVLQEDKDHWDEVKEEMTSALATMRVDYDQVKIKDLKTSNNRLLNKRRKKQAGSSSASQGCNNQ
Assay [9] deals with Rho-associated protein kinase 1 (Homo sapiens, UniProt Q13464).
Sequence of Rho-associated protein kinase 1 (Q13464 whole entry): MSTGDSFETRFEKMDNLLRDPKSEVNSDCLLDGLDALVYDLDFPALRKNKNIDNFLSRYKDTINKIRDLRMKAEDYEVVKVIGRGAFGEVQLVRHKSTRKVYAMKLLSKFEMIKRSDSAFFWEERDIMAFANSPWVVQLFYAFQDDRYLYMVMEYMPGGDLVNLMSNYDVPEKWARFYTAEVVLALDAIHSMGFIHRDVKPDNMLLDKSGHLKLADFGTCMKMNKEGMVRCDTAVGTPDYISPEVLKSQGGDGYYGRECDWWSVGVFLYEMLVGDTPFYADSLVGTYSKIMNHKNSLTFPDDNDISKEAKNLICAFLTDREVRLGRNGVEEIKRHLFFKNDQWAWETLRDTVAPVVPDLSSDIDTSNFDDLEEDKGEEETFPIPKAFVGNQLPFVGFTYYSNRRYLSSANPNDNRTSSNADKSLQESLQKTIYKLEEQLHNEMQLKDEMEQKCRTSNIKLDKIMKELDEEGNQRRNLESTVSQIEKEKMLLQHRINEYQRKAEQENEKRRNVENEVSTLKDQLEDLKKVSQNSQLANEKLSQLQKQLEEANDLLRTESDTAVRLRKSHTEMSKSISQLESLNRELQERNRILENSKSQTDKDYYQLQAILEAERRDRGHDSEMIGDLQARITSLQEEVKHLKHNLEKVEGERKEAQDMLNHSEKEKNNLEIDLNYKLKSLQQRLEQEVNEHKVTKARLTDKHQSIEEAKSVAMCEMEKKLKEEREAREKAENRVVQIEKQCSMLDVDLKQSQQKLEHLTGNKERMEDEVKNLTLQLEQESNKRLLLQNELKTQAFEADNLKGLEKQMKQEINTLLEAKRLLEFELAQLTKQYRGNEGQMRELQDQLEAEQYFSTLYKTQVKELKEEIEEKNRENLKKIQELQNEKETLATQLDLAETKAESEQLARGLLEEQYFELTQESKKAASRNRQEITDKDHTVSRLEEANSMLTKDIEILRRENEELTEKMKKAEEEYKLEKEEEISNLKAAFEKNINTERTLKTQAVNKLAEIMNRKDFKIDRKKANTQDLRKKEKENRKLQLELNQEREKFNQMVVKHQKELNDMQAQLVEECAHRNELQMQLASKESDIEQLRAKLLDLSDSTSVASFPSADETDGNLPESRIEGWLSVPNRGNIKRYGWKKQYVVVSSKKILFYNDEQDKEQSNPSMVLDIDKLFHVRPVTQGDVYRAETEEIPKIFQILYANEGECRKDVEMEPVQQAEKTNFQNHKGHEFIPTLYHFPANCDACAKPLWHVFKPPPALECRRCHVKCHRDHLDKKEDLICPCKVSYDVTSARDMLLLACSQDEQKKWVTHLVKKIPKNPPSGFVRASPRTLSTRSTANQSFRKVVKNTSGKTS
Assay [10] concerns the target Dual specificity protein kinase CLK3 (Homo sapiens, UniProt P49761). In kind it is subcellular, K-562, COLO 205, SK-N-BE(2) and MV-4-11, Cell lysate. The conditions noted are these: read-out: Kd apparent.
Note: in the data inactive means no Kd found up to 30 µM.

Sequence of High affinity nerve growth factor receptor (P04629 whole entry): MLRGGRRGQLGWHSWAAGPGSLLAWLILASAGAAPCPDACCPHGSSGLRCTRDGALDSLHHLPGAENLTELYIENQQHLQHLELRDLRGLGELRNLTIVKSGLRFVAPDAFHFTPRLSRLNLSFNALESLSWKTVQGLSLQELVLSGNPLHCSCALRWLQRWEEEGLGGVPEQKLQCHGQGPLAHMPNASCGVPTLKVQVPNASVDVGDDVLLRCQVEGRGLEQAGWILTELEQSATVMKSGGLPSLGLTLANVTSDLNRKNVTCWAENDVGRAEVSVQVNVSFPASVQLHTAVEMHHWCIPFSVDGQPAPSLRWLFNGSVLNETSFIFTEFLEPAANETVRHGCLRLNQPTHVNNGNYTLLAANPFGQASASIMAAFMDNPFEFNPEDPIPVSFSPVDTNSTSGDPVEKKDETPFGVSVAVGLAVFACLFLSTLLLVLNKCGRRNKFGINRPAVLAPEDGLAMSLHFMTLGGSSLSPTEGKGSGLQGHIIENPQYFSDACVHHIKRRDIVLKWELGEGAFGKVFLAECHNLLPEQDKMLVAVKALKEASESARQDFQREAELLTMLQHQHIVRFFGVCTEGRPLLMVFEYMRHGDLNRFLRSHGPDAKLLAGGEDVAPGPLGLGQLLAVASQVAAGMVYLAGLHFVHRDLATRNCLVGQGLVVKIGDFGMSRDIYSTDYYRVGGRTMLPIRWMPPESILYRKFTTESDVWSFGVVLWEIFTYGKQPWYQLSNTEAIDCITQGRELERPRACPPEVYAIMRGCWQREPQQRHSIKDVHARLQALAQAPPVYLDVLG
Sequence of Cell division cycle 7-related protein kinase (O00311 whole entry): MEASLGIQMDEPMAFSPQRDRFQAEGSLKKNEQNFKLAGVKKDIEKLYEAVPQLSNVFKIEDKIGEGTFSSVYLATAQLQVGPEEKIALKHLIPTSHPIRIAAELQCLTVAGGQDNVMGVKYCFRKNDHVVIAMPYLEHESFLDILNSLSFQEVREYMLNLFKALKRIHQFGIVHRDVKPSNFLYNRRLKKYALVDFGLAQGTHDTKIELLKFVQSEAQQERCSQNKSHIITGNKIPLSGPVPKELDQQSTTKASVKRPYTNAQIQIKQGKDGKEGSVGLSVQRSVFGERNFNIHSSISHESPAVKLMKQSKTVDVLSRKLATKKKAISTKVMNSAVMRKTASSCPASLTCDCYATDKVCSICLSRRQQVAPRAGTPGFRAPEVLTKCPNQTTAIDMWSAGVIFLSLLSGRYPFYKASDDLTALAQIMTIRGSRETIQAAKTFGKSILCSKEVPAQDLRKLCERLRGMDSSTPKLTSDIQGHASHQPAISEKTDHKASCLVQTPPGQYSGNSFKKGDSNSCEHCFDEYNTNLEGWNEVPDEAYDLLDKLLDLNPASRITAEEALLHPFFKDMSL
Sequence of Epidermal growth factor receptor (P00533 whole entry): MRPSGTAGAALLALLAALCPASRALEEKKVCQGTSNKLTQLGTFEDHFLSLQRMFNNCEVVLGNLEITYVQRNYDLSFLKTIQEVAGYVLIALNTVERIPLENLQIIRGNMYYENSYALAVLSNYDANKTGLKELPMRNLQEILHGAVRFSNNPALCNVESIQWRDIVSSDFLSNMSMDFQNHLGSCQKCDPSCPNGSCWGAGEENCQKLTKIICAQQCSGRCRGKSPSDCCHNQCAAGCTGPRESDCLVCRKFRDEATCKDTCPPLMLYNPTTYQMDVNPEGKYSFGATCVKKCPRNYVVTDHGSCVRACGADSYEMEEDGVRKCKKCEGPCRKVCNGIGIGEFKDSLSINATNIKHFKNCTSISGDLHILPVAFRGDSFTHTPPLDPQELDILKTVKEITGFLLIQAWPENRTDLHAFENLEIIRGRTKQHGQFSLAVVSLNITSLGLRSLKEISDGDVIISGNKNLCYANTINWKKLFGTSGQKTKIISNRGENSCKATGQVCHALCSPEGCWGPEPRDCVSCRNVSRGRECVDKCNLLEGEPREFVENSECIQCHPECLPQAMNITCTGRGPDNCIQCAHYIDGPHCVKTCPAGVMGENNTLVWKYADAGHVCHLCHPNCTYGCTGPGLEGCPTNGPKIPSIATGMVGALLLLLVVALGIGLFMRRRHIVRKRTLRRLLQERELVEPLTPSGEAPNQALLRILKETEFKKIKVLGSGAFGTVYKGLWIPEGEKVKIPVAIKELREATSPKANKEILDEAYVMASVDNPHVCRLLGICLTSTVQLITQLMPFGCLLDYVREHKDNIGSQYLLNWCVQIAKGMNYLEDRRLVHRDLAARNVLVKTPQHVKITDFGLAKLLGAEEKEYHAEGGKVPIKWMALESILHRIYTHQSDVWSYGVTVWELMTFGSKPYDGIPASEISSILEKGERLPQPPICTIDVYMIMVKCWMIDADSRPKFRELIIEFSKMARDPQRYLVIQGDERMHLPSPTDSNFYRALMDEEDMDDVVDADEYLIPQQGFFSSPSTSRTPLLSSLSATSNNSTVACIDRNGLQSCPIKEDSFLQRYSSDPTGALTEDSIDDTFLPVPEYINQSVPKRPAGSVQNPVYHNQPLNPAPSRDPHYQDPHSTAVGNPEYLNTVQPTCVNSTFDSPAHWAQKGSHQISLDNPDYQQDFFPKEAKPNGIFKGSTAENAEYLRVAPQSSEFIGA

In the case of `C#Cc1cccc(Nc2ncnc3cc4c(cc23)OCCOCCOCCO4)c1` [ICOTINIB], the Kd in assay [1] was 10.1 µM (active); in assay [2], > 30 µM (inactive); in assay [3] it was > 30 µM (inactive); in assay [4] it was > 30 µM (inactive); in assay [5] it was > 30 µM (inactive); in [6], > 30 µM (inactive). The Kd in assay [7], in assay [8], in assay [9] and in assay [10] was > 30 µM (inactive) in each case.
